Test results from patent US20250170248A1, “SMARCA DEGRADERS AND USES THEREOF” (Kymera Therapeutics, Inc., priority 2021, published 2025).

Key:
Format in all cases: cell-based
SMARCA2 [1] = molecular target: T1, SMARCA2 (Homo sapiens, UniProt P51531); assay: SMARCA2 Western blot degradation in MV4-11 cells; parameters: SMARCA2/SMARCA4 protein degradation selectivity in MV4-11 cells; endogenous in cells; host or cells: MV4-11; conditions: for Dmax: MV4-11, MV4-11 cells, read-out: SMARCA2 MSD MV411 degradation 24 h: average Dmax %; for Dmax / DC50 / SMARCA2 MSD MV411 degradation 24 h: average Dmax %: 24 h; for DC50 / SMARCA2 MSD MV411 degradation 24 h: average Dmax % / Selectivity in MV411: MV4-11 cells; for DC50: read-out: SMARCA2 MSD MV411 degradation 24 h: Mean external-Abs DC50; for Selectivity in MV411: SMARCA2/4 selectivity
T1 sequence (P51531 whole entry): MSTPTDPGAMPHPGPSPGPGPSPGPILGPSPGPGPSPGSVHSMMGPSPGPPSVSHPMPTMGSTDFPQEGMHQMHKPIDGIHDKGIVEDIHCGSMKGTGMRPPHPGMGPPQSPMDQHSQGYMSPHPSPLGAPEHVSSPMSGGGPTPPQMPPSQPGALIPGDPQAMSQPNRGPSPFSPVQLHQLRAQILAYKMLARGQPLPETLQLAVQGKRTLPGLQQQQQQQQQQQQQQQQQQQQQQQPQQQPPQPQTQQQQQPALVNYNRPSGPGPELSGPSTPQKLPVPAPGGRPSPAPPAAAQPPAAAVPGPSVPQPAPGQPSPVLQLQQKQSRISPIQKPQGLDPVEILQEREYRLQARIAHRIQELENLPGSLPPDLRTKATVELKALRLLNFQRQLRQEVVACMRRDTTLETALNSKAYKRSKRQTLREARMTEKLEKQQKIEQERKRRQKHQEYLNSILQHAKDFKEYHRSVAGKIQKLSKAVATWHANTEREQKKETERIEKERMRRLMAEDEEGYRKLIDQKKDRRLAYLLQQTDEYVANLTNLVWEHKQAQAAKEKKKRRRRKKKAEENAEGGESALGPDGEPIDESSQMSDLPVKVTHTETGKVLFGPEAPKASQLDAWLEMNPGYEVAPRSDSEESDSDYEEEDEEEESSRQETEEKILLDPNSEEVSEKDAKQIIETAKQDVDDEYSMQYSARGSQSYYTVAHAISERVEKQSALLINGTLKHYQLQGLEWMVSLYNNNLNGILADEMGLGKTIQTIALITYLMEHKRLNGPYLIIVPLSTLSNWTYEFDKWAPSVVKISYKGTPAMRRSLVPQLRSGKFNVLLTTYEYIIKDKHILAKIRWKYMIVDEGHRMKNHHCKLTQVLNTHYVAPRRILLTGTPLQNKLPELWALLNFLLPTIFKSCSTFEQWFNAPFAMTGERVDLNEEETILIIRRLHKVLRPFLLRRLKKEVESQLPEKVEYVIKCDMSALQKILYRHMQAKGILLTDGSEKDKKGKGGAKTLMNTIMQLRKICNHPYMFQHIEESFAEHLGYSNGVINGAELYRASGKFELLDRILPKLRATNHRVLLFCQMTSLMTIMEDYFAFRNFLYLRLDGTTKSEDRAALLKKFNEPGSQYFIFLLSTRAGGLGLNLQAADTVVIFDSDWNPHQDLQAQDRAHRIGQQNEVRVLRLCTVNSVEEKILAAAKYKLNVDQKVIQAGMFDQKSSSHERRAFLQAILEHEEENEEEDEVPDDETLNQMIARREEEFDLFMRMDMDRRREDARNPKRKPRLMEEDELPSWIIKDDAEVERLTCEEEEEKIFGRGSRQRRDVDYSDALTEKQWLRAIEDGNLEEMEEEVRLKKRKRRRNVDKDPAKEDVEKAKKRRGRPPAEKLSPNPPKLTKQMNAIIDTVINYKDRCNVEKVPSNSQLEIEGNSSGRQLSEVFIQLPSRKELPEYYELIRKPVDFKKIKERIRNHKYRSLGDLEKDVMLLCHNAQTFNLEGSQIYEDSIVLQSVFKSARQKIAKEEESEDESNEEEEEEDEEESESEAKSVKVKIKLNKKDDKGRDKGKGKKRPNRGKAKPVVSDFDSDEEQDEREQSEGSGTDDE

SMARCA2 [2] = molecular target: T1, SMARCA2; assay: MSD SMARCA2 degradation in A549 cell line; conditions: 24 h; for Dmax: A549, A549 cells; for DC50: A549 cells, read-out: SMARCA2 MSD A549 degradation 24 h: Average external-Abs DC50
Method: Example 10. MSD SMARCA2 Degradation in A549 Cell Line
Cells were seeded into 96-well plates (A549 cells: 2×10^4 cells/well/100 ul media) and incubated overnight. The next day, 200 nL compound were added into the intermediate plate with Echo (Labcyte 550) from source plate containing a 3-fold serial dilution from top concentration of 1 mM. The culture medium was changed with 8 0ul of fresh medium and 80 μL of 2× compound solution was added into the well to make a final concentration of 1000 nM, 333.3 nM, 111.1 nM, 37.04 nM, 12.35 nM, 4.115 nM, 1.372 nM, 0.457 nM, 0.152 nM and 0 nM (DMSO). The wells were mixed and then incubated for 24 hours. The media was aspirated from the cultures and 60 ul pre-chilled PIPA lysis buffer (Boston BioProducts BP-115D) with protease/phosphatase inhibitor (Roche 05892791001/Roche 04906837001) was added into the well to lyze the cells for 20 minutes at 4° C. The MSD plate (L15XA) was coated with 40 uL cell lysate and incubated at 4° C. overnight. The next day, the plate was washed three times with TBST (CST #9997S), 150 ul/well. The MSD plates was blocked with 150 ul blocking buffer per well and shaked for 1 hr at RT, 600 rpm. The blocking buffer was 3% Blocker A (MSD, R93BA-4) in TBST. The MSD plate was washed three times with 150 uL/well of TBST and 25 ul/well of detection antibody (Rabbit anti-SMARCA2/BRM antibody, 100 μg/mL, ab223735) was added at final concentration of 1 μg/mL diluted in 1% Blocking buffer and shaken for 1 hour at RT, 600 rpm. The MSD plate was washed three times with 150 ul/well of TBST and 25 ul/well of SULFO-TAG anti-rabbit antibody (MSD, R32AB-1) was added at final concentration of 1 μg/ml diluted in 1% Blocking buffer and shaken for 1 hour at RT, 600 rpm. The MSD plate was washed three times with 150 uL/well of TBST and 150 ul/well of 2× MSD reading buffer diluted from 4× (MSD, R92TC-2) with water was added. Lastly, the MSD instrument was read.
The letter codes for SMARCA2 degradation potency (DC50) include: A (<10 nM), B (10-50 nM), C (>50-100 nM), and D (>100 nM). The letter codes for the percentage of SMARCA degradation after 24 hours (Dmax %) include: A (>90% degradation), B (>70-90% degradation), C (50-70% degradation), and D (<50% degradation).

SMARCA4 = molecular target: T2, SMARCA4 (Homo sapiens, UniProt P51532); assay: SMARCA4 Western blot degradation in MV4-11 cells; conditions: 24 h; for Dmax: MV4-11, MV4-11 cells, read-out: SMARCA4 MSD MV411 degradation 24 h: average Dmax %; for DC50: MV4-11 cells, read-out: SMARCA4 MSD MV411 degradation 24 h: Mean external-Abs DC50
T2 construct: SMARCA2/SMARCA4 protein degradation selectivity in MV4-11 cells; endogenous in cells; host or cells: MV4-11
T2 sequence (P51532 whole entry): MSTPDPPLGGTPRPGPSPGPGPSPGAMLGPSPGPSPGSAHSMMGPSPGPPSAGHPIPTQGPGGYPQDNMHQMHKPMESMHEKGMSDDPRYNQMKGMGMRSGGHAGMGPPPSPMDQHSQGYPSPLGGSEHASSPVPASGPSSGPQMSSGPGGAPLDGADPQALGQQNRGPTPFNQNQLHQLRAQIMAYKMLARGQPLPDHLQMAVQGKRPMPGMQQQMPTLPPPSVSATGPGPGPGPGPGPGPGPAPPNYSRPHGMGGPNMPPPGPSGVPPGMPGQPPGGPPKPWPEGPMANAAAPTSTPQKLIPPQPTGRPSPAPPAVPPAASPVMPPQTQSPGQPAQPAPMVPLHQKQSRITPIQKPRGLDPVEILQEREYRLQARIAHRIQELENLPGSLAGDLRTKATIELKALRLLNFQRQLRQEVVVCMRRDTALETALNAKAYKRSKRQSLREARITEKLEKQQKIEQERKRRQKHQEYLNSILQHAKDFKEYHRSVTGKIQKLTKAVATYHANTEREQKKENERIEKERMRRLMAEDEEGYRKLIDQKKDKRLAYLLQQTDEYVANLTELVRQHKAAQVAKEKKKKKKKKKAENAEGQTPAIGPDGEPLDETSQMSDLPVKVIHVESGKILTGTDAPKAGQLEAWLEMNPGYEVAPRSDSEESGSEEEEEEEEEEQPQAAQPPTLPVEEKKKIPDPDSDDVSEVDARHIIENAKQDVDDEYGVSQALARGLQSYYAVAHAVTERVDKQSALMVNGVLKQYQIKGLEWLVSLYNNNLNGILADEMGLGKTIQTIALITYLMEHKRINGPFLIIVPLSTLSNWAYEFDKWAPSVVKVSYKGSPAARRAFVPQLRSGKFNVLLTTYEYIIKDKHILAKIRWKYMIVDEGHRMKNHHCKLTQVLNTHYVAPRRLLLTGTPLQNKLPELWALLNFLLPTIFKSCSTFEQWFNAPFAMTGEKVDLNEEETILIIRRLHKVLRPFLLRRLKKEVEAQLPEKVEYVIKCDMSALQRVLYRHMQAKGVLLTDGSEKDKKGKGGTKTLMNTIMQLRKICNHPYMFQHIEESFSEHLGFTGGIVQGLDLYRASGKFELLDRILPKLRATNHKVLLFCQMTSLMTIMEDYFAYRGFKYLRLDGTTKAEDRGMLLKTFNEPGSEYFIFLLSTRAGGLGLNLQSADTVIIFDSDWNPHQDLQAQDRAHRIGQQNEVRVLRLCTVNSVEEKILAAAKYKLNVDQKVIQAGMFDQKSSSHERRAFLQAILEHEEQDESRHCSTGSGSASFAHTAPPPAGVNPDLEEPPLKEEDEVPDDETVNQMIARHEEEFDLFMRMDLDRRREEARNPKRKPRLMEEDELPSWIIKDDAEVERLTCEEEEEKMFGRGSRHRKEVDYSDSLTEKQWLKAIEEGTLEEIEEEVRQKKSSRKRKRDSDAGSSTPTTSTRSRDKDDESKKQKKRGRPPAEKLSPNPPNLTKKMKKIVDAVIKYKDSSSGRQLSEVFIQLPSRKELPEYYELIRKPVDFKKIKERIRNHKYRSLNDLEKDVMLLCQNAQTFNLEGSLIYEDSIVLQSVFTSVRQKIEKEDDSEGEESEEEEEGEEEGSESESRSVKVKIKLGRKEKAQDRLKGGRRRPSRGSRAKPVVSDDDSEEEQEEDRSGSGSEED
Method: Example 11. SMARCA2 and SMARCA4 Western Blot MV4-11 Degradation
Cells were seeded into 6-well plates (MV4-11:4×10^6 cells/well/1 ml) and 1 ml of 2× compound solution was added into the well to make the final concentration and the plates were mixed well and incubated for 24 hours (No cytotoxicity was observed). The cell were collected with media and spun at 3000 rpm for 5 minutes. The supernatant was aspirated and the well and the cells were washed with cold PBS once and combined for centrifugation again; the supernatant aspirated again. 200 uL pre-chilled RIPA lysis buffer (Boston BioProducts BP-115D) with protease/phosphatase inhibitor (Roche 05892791001/Roche 04906837001) was directly added into the tube to lyze the cells for 20 minutes on ice. The cell lysate were collected into EP tubes and spun at 13000 rpm for 20 minutes and 72 uL supernatant was transferred to a fresh EP tube containing 18 μL of 5× loading buffer (Beyotime Bio P0015) to make the loading samples. The samples were heated to 100° C. for 10 minutes and cooled to RT and microcentrifuged. 20 μL of samples were loaded onto SDS-PAGE gel (Novex, WG1402BOX) and the gel was run at 80 V for 20 minutes and 120 V for 1.5 hours. The samples were electrotransfer to a NC membrane using wet-transfer method with 250 mA for 2.5 hours. The membrane was blocked with LICOR blocking buffer (LI COR,927-50000) for 1 hour. The membrane was washed three times with TBST(CST #9997S), 5 minutes each. Incubation was performed with primary antibody prepared in blocking buffer with 0.1% Tween-20 (Solarbio, P8220) at 4° C. overnight (Anti-SMARCA2/BRM antibody (ab15597) 1:500; Anti-BRG1 antibody [EPR3912](ab108318) 1:1000; Rabbit anti-Bafl80 antibody [EPR15860](Abcam,ab196022) 1:1000; mouse anti-beta-Actin (8H10D10) (CST #3700) 1:10000). The membrane was washed three times with TBST, 5 minutes each. Incubation with secondary antibody was performed for 1 hour at RT (anti-rabbit IgG (Licor,926-32211) 1:5000; anti-mouse IgG (LI-COR, 926-68070) 1:5000). The membrane was washed three times with 5 minutes each and lastly the LiCOR was read.
The letter codes for SMARCA2/4 degradation potency (DC50) include: A (<1 nM), B (1-10 nM), C (>10-100 nM), and D (>100 nM). The letter codes for the percentage of SMARCA2/4 degradation after 24 hours (Dmax %) include: A (>90% degradation), B (>70-90% degradation), C (50-70% degradation), and D (<50% degradation). The letter codes of SMARCA2/4 selectivity include: A (>500 fold), B (>100-500 fold), C (10-100 fold), and D (<10 fold). Table 8. SMARCA2/4 Selectivity Results

## Cc1ncsc1-c1ccc(CNC(=O)[C@@H]2C[C@@H](O)CN2C(=O)[C@@H](NC(=O)[C@H]2CCC3(CC2)C[C@H](N2CCN(c4cnc(N5CCc6[nH]c7nnc(-c8ccccc8O)cc7c6[C@H]5C)nc4)CC2)C3)C(C)(C)C)cc1 (single isomer, unassigned) [I-112]
SMARCA2 [1]
  Dmax: 50 to 70%
  DC50: 10 to 100 nM
SMARCA2 [2]
  Dmax: > 90%
  DC50: 50 to 100 nM

## C#Cc1ccc(CNC(=O)[C@@H]2C[C@@H](O)CN2C(=O)[C@@H](NC(=O)[C@H]2CCC3(CC2)C[C@H](N2CCC(c4cnc(N5CCN6c7cc(-c8cccc(Cl)c8O)nnc7NC[C@@H]6C5)nc4)CC2)C3)C(C)(C)C)cc1 (single isomer, unassigned) [I-153]
SMARCA2 [1]
  Dmax: 70 to 90%
  DC50: 1 to 10 nM
SMARCA2 [2]
  Dmax: > 90%
  DC50: > 100 nM

## Cc1ncsc1-c1ccc(CNC(=O)[C@@H]2C[C@@H](O)CN2C(=O)[C@@H](NC(=O)N2CCC3(CC2)CC(N2CCC(c4cnc(N5CCc6[nH]c7nnc(-c8ccccc8O)cc7c6[C@@H]5C)nc4)CC2)C3)C(C)(C)C)cc1 [I-59]
SMARCA2 [2]
  Dmax: < 50%

## C#Cc1ccc(CNC(=O)[C@@H]2C[C@@H](O)CN2C(=O)[C@@H](NC(=O)[C@H]2CCC3(CC2)C[C@H](N2CCC(c4cnc(N5CCN6c7cc(-c8cccc(Cl)c8O)nnc7NC[C@H]6C5)nc4)CC2)C3)C(C)(C)C)cc1 (single isomer, unassigned) [I-152]
SMARCA2 [1]
  SMARCA2 MSD MV411 degradation 24 h: average Dmax %: C (C (50-70% degradation))
  DC50: 10 to 100 nM
SMARCA2 [2]
  Dmax: 70 to 90%
  DC50: > 100 nM

## C#Cc1ccc(CNC(=O)[C@@H]2C[C@@H](O)CN2C(=O)[C@@H](NC(=O)C2CCC3(CC2)CC(N2CCC(c4cnc(N5CCN6c7cc(-c8ccccc8O)nnc7NC[C@H]6C5)nc4)CC2)C3)C2CCNCC2)cc1 (some centres unmarked) [I-132]
SMARCA2 [1]
  Dmax: < 50%
  DC50: > 100 nM
SMARCA2 [2]
  Dmax: < 50%
  DC50: > 100 nM

## Cc1cc(F)ccc1C#CCNC(=O)[C@@H]1C[C@@H](O)CN1C(=O)[C@@H](NC(=O)[C@H]1CCC2(CC1)C[C@H](N1CCC(c3cnc(N4CCN5c6cc(-c7ccccc7O)nnc6NC[C@H]5C4)nc3)CC1)C2)C(C)(C)C (some centres unmarked) [I-115]
SMARCA2 [2]
  DC50: > 100 nM

## Cc1cc(F)ccc1C#CCNC(=O)[C@@H]1C[C@@H](O)CN1C(=O)[C@@H](NC(=O)[C@H]1CCC2(CC1)C[C@H](N1CCC(c3cnc(N4CCN5c6cc(-c7ccccc7O)nnc6NC[C@H]5C4)nc3)CC1)C2)C(C)(C)C (single isomer, unassigned) [I-106]
SMARCA2 [1]
  Dmax: < 50%
  DC50: > 100 nM
SMARCA2 [2]
  Dmax: < 50%
  DC50: > 100 nM

## Cc1ncsc1-c1ccc(CNC(=O)[C@@H]2C[C@@H](O)CN2C(=O)[C@@H](c2cc(N3CC4(CC(N5CCC(c6cnc(N7CCN8c9cc(-c%10ccccc%10O)nnc9NC[C@H]8C7)nc6)CC5)C4)C3)no2)C(C)C)cc1 (single isomer, unassigned) [I-55]
SMARCA2 [1]
  Dmax: > 90%
  DC50: < 1 nM
  Selectivity in MV411: D (D (<10 fold))
SMARCA4
  Dmax: > 90%
  DC50: < 1 nM

## C#Cc1ccc(CNC(=O)[C@@H]2C[C@@H](O)CN2C(=O)[C@@H](NC(=O)[C@H]2CCC3(CC2)C[C@H](N2CCC(c4cnc(N5CCN6c7cc(-c8cccc(F)c8O)nnc7NC[C@H]6C5)nc4)CC2)C3)C(C)(C)C)cc1 (single isomer, unassigned) [I-157]
SMARCA2 [1]
  SMARCA2 MSD MV411 degradation 24 h: average Dmax %: B (B (>70-90% degradation))
  DC50: 1 to 10 nM
SMARCA2 [2]
  Dmax: > 90%
  DC50: 50 to 100 nM

## Cc1ncsc1-c1ccc(CNC(=O)[C@@H]2C[C@@H](O)CN2C(=O)[C@@H](NC(=O)C2(F)CC2)C(C)(C)C)c(OCCCCN2CCN(c3cnc(N4CCN5c6cc(-c7ccccc7O)nnc6NC[C@H]5C4)nc3)CC2)c1 (single isomer, unassigned) [I-45]
SMARCA2 [1]
  Dmax: > 90%
  DC50: < 1 nM
  Selectivity in MV411: D (D (<10 fold))
SMARCA4
  Dmax: > 90%
  DC50: 1 to 10 nM

## C#CCOc1cc(C(C(=O)N2C[C@H](O)C[C@H]2C(=O)NCc2ccc(-c3scnc3C)cc2O[C@H]2CC[C@@H](N3CCC(c4cnc(N5CCc6[nH]c7nnc(-c8ccccc8O)cc7c6[C@@H]5C)nc4)CC3)CC2)C(C)C)on1 (some centres unmarked) [I-39]
SMARCA2 [2]
  Dmax: 50 to 70%
  DC50: > 100 nM

## Cc1ncsc1-c1ccc(CNC(=O)[C@@H]2C[C@@H](O)CN2C(=O)[C@@H](NC(=O)[C@H]2CCC3(CC2)C[C@H](N2CCC(c4cnc(N5CCN6c7cc(-c8ccccc8O)nnc7NC[C@H]6C5)nc4)CC2)C3)C(C)(C)C)cc1 (some centres unmarked) [I-71]
SMARCA2 [1]
  DC50: 1 to 10 nM
  Selectivity in MV411: A (A (>500 fold))
SMARCA4
  DC50: > 100 nM

## CC(C)C(C(=O)N1C[C@H](O)C[C@H]1C(=O)NCc1ccc(C#N)cc1)c1cc(N2CC3(CC(N4CCC(c5cnc(N6CCN7c8cc(-c9ccccc9O)nnc8NC[C@H]7C6)nc5)CC4)C3)C2)no1 (some centres unmarked) [I-20]
SMARCA2 [1]
  Dmax: < 50%
  DC50: > 100 nM
  Selectivity in MV411: C (C (10-100 fold))
SMARCA4
  Dmax: < 50%
  DC50: > 100 nM

## Cc1ncsc1-c1ccc(CNC(=O)[C@@H]2C[C@@H](O)CN2C(=O)[C@@H](NC(=O)N2CC3(CCC(N4CCC(c5cnc(N6CCN7c8cc(-c9ccccc9O)nnc8NC[C@H]7C6)nc5)CC4)CC3)C2)C(C)(C)C)cc1 [I-69]
SMARCA2 [1]
  Dmax: > 90%
  DC50: < 1 nM
  Selectivity in MV411: D (D (<10 fold))
SMARCA4
  Dmax: > 90%
  DC50: 1 to 10 nM

## C#Cc1ccc(CNC(=O)[C@@H]2C[C@@H](O)CN2C(=O)[C@@H](NC(=O)[C@H]2CC[C@H](c3ccc(-c4cnc(N5CCN6c7cc(-c8ccccc8O)nnc7NC[C@H]6C5)nc4)cc3)CC2)C(C)(C)C)cc1 [I-23]
SMARCA2 [1]
  Dmax: 70 to 90%
  DC50: 10 to 100 nM
  Selectivity in MV411: C (C (10-100 fold))
SMARCA4
  Dmax: < 50%
  DC50: > 100 nM
